Assay [1] relates to Salmonella enteriditis phage type VIII (SePT8). In words: Susceptibility test: paper disk zone of inhibition on inoculated agar plate. The format is cell-based. Particulars: paper disk impregnated with fixed concentration of test material, 2 days. As to the method: An agar plate was uniformly inoculated with salmonella and a paper disk impregnated with a fixed concentration of test material was placed on top of the agar surface. […] The bacteria used was Salmonella enteriditis phage type VIII (SePT8). The study was conducted for 2 days. A disk soaked in sterile water was used as control.

Assay [2] concerns salmonella. Description: Concentration of salmonella in organs of challenged chicks fed test material. The format is in vivo. The conditions noted are these: chicks fed supplemented diet from hatch, sacrificed at 14 days. As to the method:
Newly hatched chicks were fed a diet supplemented with the test materials, at 7 days of age, chicks were challenged 0.2 ml of a 2×10^9 salmonella culture. Chicks were sacrificed at 14 days of age (1 week after bacterial challenge), their organs dissected and cultured to determine bacterial counts.

The test system of assay [3] is E. coli. Particulars: cited from earlier work.

Consider `O=S(=O)([O-])[O-].[Cu+2]` [Copper Sulfate], for which, in assay [1], the “Zone of Inhibition” value stood at 1.444 mm. Further, the “concentration of salmonella in Liver” value in assay [2] (challenged at 7 days with 0.2 ml of 2×10^9 culture, liver) was 11 cfu. Besides, the “concentration of salmonella in Ceca” value in assay [2] (challenged at 7 days, ceca) is 54 cfu. Further, in assay [2] (challenged at 7 days, colon), the “concentration of salmonella in Colon” value is listed as 74 cfu. Further, the “concentration of salmonella in Duodenum” value in assay [2] (challenged at 7 days, duodenum) was determined as 19 cfu. Further, the “concentration of salmonella in Spleen” value in assay [2] (challenged at 7 days, spleen) was 10 cfu.

As for `CC(C)=CCCC(C)=CC=O` [citral], the “citral concentration in growth media that reduced the concentration of E. coli” value in assay [3] is on record as “more than 0.01%”. In addition, the “citral concentration with bactericidal effect” value in assay [3] (growth media, E. coli) is 0.08%.

Turning to Gentamycin, the “Zone of Inhibition” value in assay [1] is 1.300 mm.

The values are drawn from patent US20060159727A1, “Prevention of Systemic Microbial Infection” (priority 2005, published 2006).
